Source: patent US10214508B2, “Nitrogen-containing heterocyclic compound” (Takeda Pharmaceutical Company Limited, priority 2014, dated 2019)
Where a name gives a salt, the structure may show the parent alone.

Molecular target: T1, human M1 receptor (hCHRM1) (Homo sapiens, UniProt P11229)
T1 construct: expressed in transfected cells
T1 sequence (P11229 1-460): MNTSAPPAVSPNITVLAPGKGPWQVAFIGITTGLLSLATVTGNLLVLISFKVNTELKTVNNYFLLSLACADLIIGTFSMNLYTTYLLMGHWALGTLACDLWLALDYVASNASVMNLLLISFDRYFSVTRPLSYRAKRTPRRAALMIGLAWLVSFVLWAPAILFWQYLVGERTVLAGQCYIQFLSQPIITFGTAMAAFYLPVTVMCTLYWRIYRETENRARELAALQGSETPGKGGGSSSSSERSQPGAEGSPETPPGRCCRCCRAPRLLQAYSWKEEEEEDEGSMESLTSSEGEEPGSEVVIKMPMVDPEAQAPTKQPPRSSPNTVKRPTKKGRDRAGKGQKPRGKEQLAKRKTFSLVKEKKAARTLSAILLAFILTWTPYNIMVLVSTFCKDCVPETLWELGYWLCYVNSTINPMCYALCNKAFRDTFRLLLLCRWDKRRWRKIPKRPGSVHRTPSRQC
Assay: Measurement of M1 receptor positive allosteric modulator (M1PAM) activity, calcium fluorescence (FLIPRtetra)
Format: cell-based
Conditions: 10 μM test compound with acetylcholine at EC20 (final 0.6-0.8 nM); 100% = acetylcholine 1 μM, 0% = DMSO; CHO-K1 cells expressing hCHRM1
Description: Measurement of M1 Receptor Positive Allosteric Modulator (M1PAM) Activity
The activity of a test compound in the presence of acetylcholine at EC20 concentration (final concentration 0.6-0.8 nM), which affords an action corresponding to about 20% of the maximum activity, was measured as PAM activity. The method is as follows. CHO-K1 cells stably expressing a human M1 receptor (hCHRM1) were plated on a 384-well black clear bottom plate (BD Falcon) at 5,000 cells/well, and cultured in an incubator at 37° C., 5% CO2 for 1 day. The medium in the cell plate was removed, and assay buffer A containing calcium indicator (Recording medium (DOJINDO LABORATORIES), 0.1% BSA (Wako Pure Chemical Industries, Ltd.), 2.5 μg/mL Fluo-4 AM (DOJINDO LABORATORIES), 0.08% Pluronic F127 (DOJINDO LABORATORIES), 1.25 mM probenecid (DOJINDO LABORATORIES)) was added at 30 μL/well. The cells were left standing in the incubator at 37° C., 5% CO2 for 30 min, and further left standing at room temperature for 30 min. A test compound prepared by diluting with assay buffer B (HBSS (Invitrogen), 20 mM HEPES (Invitrogen), 0.1% BSA) containing 2.4-3.2 nM acetylcholine was added at 10 μL/well, and the fluorescence was measured by FLIPRtetra (Molecular Devices) for 1 min every for 1 second. With the definition that the amount of change in the fluorescence on addition of acetylcholine (final concentration 1 μM) is 100% and that on addition of DMSO instead of a test compound is 0%, the activity (%) of the test compound was calculated, and the inflection point in the concentration-dependent curve of the test compound was calculated as IP values.

Row | Structure (SMILES) | activity (%) at 10 μM
1 | COc1cnc(C(=O)N[C@H]2CCCC[C@@H]2O)cc1Cc1ccc(-c2cnn(C)c2)nc1 (relative stereo) [Example 58, N-(trans-2-hydroxycyclohexyl)-5-methoxy-4-((6-(1-methyl-1H-pyrazol-4-yl)pyridin-3-yl)methyl)pyridine-2-carboxamide] | 89%
2 | Cc1cnc(C(=O)N[C@H]2COCC[C@@H]2O)cc1Cc1ccc(-c2ccn(C)n2)cc1 [Example 2, 1,5-anhydro-2,4-dideoxy-2-(((5-methyl-4-(4-(1-methyl-1H-pyrazol-3-yl)benzyl)pyridin-2-yl)carbonyl)amino)-L-threo-pentitol] | 100%
3 | O=C(N[C@H]1CCC[C@@H]1O)c1cc(Cc2ccc(-n3cccn3)cc2)c(Cl)cn1 [Example 7, 5-chloro-N-((1S,2S)-2-hydroxycyclopentyl)-4-(4-(1H-pyrazol-1-yl)benzyl)pyridine-2-carboxamide] | 104%
4 | O=C(N[C@H]1COCC[C@@H]1O)c1cc(Cc2ccc(-n3cccn3)cc2)c(Cl)cn1 [Example 8, 1,5-anhydro-2-(((5-chloro-4-(4-(1H-pyrazol-1-yl)benzyl)pyridin-2-yl)carbonyl)amino)-2,4-dideoxy-L-threo-pentitol Hydrochloride] | 92%
5 | Cc1cnc(C(=O)N[C@H]2CCC[C@@H]2O)cc1Cc1ccc(-c2ccn(C)n2)cc1F [Example 11, 4-(2-fluoro-4-(1-methyl-1H-pyrazol-3-yl)benzyl)-N-((1S,2S)-2-hydroxycyclopentyl)-5-methylpyridine-2-carboxamide] | 98%
6 | Cc1cnc(C(=O)N[C@H]2CCCC[C@@H]2O)cc1Cc1ccc(-n2cccn2)cc1F [Example 12, 4-(2-fluoro-4-(1H-pyrazol-1-yl)benzyl)-N-((1S,2S)-2-hydroxycyclohexyl)-5-methylpyridine-2-carboxamide] | 113%
7 | Cc1cnc(C(=O)N[C@H]2CCC[C@@H]2O)cc1Cc1ccc(-n2cccn2)cc1F [Example 13, 4-(2-fluoro-4-(1H-pyrazol-1-yl)benzyl)-N-((1S,2S)-2-hydroxycyclopentyl)-5-methylpyridine-2-carboxamide] | 92%
8 | Cc1cnc(C(=O)N[C@H]2COCC[C@@H]2O)cc1Cc1ccc(-c2ccn(C)n2)cc1F [Example 16, 1,5-anhydro-2,4-dideoxy-2-(((4-(2-fluoro-4-(1-methyl-1H-pyrazol-3-yl)benzyl)-5-methylpyridin-2-yl)carbonyl)amino)-L-threo-pentitol] | 91%
9 | Cc1cnc(C(=O)N[C@H]2COCC[C@@H]2O)cc1Cc1ccc(-n2cccn2)cc1F [Example 17, 1,5-anhydro-2,4-dideoxy-2-(((4-(2-fluoro-4-(1H-pyrazol-1-yl)benzyl)-5-methylpyridin-2-yl)carbonyl)amino)-L-threo-pentitol] | 98%
10 | Cc1cnc(C(=O)NC2(CO)CCCC2)cc1Cc1ccc(-c2ccn(C)n2)cc1 [Example 20, N-(1-(hydroxymethyl)cyclopentyl)-5-methyl-4-(4-(1-methyl-1H-pyrazol-3-yl)benzyl)pyridine-2-carboxamide] | 75%
11 | Cc1cnc(C(=O)NC2CCOCC2O)cc1Cc1ccc(-c2ccn(C)n2)cc1 (stereo not shown) [Example 21, 1,5-anhydro-2,3-dideoxy-3-(((5-methyl-4-(4-(1-methyl-1H-pyrazol-3-yl)benzyl)pyridin-2-yl)carbonyl)amino)pentitol] | 89%
12 | Cc1cnc(C(=O)NC2CC2(F)F)cc1Cc1ccc(-c2ccn(C)n2)cc1 (stereo not shown) [Example 22, N-(2,2-difluorocyclopropyl)-5-methyl-4-(4-(1-methyl-1H-pyrazol-3-yl)benzyl)pyridine-2-carboxamide] | 77%
13 | Cc1cnc(C(=O)NC2(CO)CC2)cc1Cc1ccc(-c2ccn(C)n2)cc1 [Example 23, N-(1-(hydroxymethyl)cyclopropyl)-5-methyl-4-(4-(1-methyl-1H-pyrazol-3-yl)benzyl)pyridine-2-carboxamide] | 84%
14 | Cc1cnc(C(=O)N[C@H]2c3ccccc3C[C@H]2O)cc1Cc1ccc(-c2ccn(C)n2)cc1 [Example 24, N-((1S,2R)-2-hydroxy-2,3-dihydro-1H-inden-1-yl)-5-methyl-4-(4-(1-methyl-1H-pyrazol-3-yl)benzyl)pyridine-2-carboxamide] | 87%
15 | Cc1cnc(C(=O)NC2CC(F)(F)CCC2O)cc1Cc1ccc(-c2ccn(C)n2)cc1 (stereo not shown) [Example 25, N-(5,5-difluoro-2-hydroxycyclohexyl)-5-methyl-4-(4-(1-methyl-1H-pyrazol-3-yl)benzyl)pyridine-2-carboxamide] | 85%
16 | Cc1cnc(C(=O)NC2COC2)cc1Cc1ccc(-c2ccn(C)n2)cc1 [Example 26, 5-methyl-4-(4-(1-methyl-1H-pyrazol-3-yl)benzyl)-N-(oxetan-3-yl)pyridine-2-carboxamide] | 59%
17 | Cc1cnc(C(=O)NC2CCOCC2)cc1Cc1ccc(-c2ccn(C)n2)cc1 [Example 27, 5-methyl-4-(4-(1-methyl-1H-pyrazol-3-yl)benzyl)-N-(tetrahydro-2H-pyran-4-yl)pyridine-2-carboxamide] | 88%
18 | Cc1cnc(C(=O)NC2CC2)cc1Cc1ccc(-c2ccn(C)n2)cc1 [Example 28, N-cyclopropyl-5-methyl-4-(4-(1-methyl-1H-pyrazol-3-yl)benzyl)pyridine-2-carboxamide] | 73%
19 | Cc1cnc(C(=O)NC2CCC2)cc1Cc1ccc(-c2ccn(C)n2)cc1 [Example 29, N-cyclobutyl-5-methyl-4-(4-(1-methyl-1H-pyrazol-3-yl)benzyl)pyridine-2-carboxamide] | 93%

The next lines start with the values.

Row | activity (%) at 10 μM | Structure (SMILES)
20 | 98% | Cc1cnc(C(=O)N[C@H]2CCCC[C@@H]2O)cc1Cc1ccc(-n2cccn2)cc1 (relative stereo) [Example 4, N-(trans-2-hydroxycyclohexyl)-5-methyl-4-(4-(1H-pyrazol-1-yl)benzyl)pyridine-2-carboxamide]
21 | 91% | Cc1cnc(C(=O)N[C@H]2CCC[C@@H]2O)cc1Cc1ccc(-n2cccn2)cc1 [Example 5, N-((1S,2S)-2-hydroxycyclopentyl)-5-methyl-4-(4-(1H-pyrazol-1-yl)benzyl)pyridine-2-carboxamide]
22 | 108% | O=C(N[C@H]1CCCC[C@@H]1O)c1cc(Cc2ccc(-n3cccn3)cc2)c(Cl)cn1 [Example 6, 5-chloro-N-((1S,2S)-2-hydroxycyclohexyl)-4-(4-(1H-pyrazol-1-yl)benzyl)pyridine-2-carboxamide]
23 | 91% | Cc1cnc(C(=O)N[C@H]2CCCC[C@@H]2O)cc1Cc1ccc(-c2ccn(C)n2)cc1 [Example 9, N-((1S,2S)-2-hydroxycyclohexyl)-5-methyl-4-(4-(1-methyl-1H-pyrazol-3-yl)benzyl)pyridine-2-carboxamide]
24 | 89% | Cc1cnc(C(=O)N[C@H]2CCCC[C@@H]2O)cc1Cc1ccc(-c2ccn(C)n2)cc1F [Example 10, 4-(2-fluoro-4-(1-methyl-1H-pyrazol-3-yl)benzyl)-N-((1S,2S)-2-hydroxycyclohexyl)-5-methylpyridine-2-carboxamide]
25 | 100% | Cc1cnc(C(=O)N[C@H]2CCC[C@@H]2O)cc1Cc1ccc(-c2cn(C)nc2C)cc1 [Example 14, 4-(4-(1,3-dimethyl-1H-pyrazol-4-yl)benzyl)-N-((1S,2S)-2-hydroxycyclopentyl)-5-methylpyridine-2-carboxamide Dihydrochloride]
26 | 107% | Cc1cnc(C(=O)N[C@H]2CCCC[C@@H]2O)cc1Cc1ccc(-c2cn(C)nc2C)cc1 [Example 15, 4-(4-(1,3-dimethyl-1H-pyrazol-4-yl)benzyl)-N-((1S,2S)-2-hydroxycyclohexyl)-5-methylpyridine-2-carboxamide]
27 | 105% | COC1CCCCC1NC(=O)c1cc(Cc2ccc(-c3ccn(C)n3)cc2)c(C)cn1 (stereo not shown) [Example 18, N-(2-methoxycyclohexyl)-5-methyl-4-(4-(1-methyl-1H-pyrazol-3-yl)benzyl)pyridine-2-carboxamide]
28 | 104% | COc1ccc(Cc2cc(C(=O)N[C@H]3CCCC[C@@H]3O)ncc2C)cc1 [Example 19, N-((1S,2S)-2-hydroxycyclohexyl)-4-(4-methoxybenzyl)-5-methylpyridine-2-carboxamide]
